The results in this text go back to publication PMC11189555, “Aryl amino acetamides prevent Plasmodium falciparum ring development via targeting the lipid-transfer protein PfSTART1” (Nature Communications, 2024).

The test system of assay [1] is M-833 resistant parasite populations (PopC, PopD, PopE). Nature of the assay: Growth inhibition of M-833 resistant populations (LDH). Format: cell-based, Plasmodium falciparum. As to the method: After three cycles of drug treatment, three parasite populations were identified as less susceptible to the compound and their growth in serially diluted M-833 after 72 h was measured by lactate dehydrogenase (LDH) activity assays. […] The two most resistant populations (PopD and PopE) were further cloned out by limiting dilution. […] To identify the target of M-833, genomic DNA was extracted from the clonal lines of PopD and PopE and subjected to whole genome sequencing using MinION technology and compared to clonal 3D7 parental parasites. This identified 14 non-synonymous single nucleotide polymorphisms (SNP) across nine different genes when compared to the 3D7 parental strain (Supplementary Data 1). The two genes that had SNPs present across all resistant clones were the P. falciparum liver stage antigen 1 gene (PF3D7_1036400) and P. falciparum stAR-related lipid transfer protein (PF3D7_0104200, PFA0210c; pfstart1). The former is not expressed in the blood stage[19]–[21] and comprises a large central repeat region which is problematic for variant calling. […] Collectively, all the identified mutations (N309K, I224F, N330K) were found within the central conserved START domain and predicted to face the lipid-binding pocket (Fig. 1C).
The drug was then removed, and parasites were allowed to recover. Another cycle of drug treatment (3 μM M-833) was then resumed. The resistant lines were cloned out by limiting dilution (diluting the culture into a 96-well plate to achieve an average of ~0.3 parasites per well), prior to growth inhibition assays and genomic DNA (gDNA) extraction (DNeasy Blood and Tissue kit (Qiagen)[18].
Parasite growth assays with inhibitory compounds were performed as per[11] and are fully described in the Supplementary Information. […]
and compound 4. Note that M-833 was first purchased from MolPort (MolPort -002-267-916) then made in-house at WEHI: the differences observed in EC50s across experiments are attributed to the different batches of M -833. For some experiments, 0, 0.25 or 2.5 mM of glucosamine (GlcN) was also added. Experiments were set up in technical duplicates or triplicates. Following a freeze -thaw cycle, lactate dehydrogenase (LDH) activity was assessed as an indicator of parasite growt h 5. 30 μL of parasite culture was incubated for 30 min in the dark with 75 μL Malstat mixture (0.1 M Tris pH 9.0, 20 g/L lactic acid, pH 7.5, 0.2% Triton-X100, 0.5 g/L acetylpyridine adenine dinucleotide (APAD, Sigma), 200 μg/mL nitroblue tetrazolium (NBT; Sigma), 1 μg/mL phenozine ethosulfate (PES; Sigma)). Absorbance was then measured at 650 nm, transformed using the formula below, plotted against the logarithm of the concentrations, and a non-linear regression (log(inhibitor) vs. response, variable slope) was calculated using GraphPad Prism to assess the half-inhibitory […]
Growth inhibition % = (1 − average(sample)− average(uRBC)) ∗ 100 […]
The DMSO samples were also used to assess growth of parasite in the presence of 0.25 and 2.5 mM GlcN (normalised by DMSO in 0 mM GlcN). […]

Another assay deals with ring-stage 3D7 parasites. Description: Stage arrest and recovery assay (SYBR Green flow cytometry, Giemsa smears). Format: cell-based, Plasmodium falciparum. As to conditions: for growth after washout of compound: 48 h treatment, then washout, 6 days post washout (T = 192 h); for ring morphology after 48 h / schizont development at 36 h / impact on already-developed rings or trophozoites: M-833 2 µM, W-991 60 nM from ring stage; for impact on already-developed rings or trophozoites: one cycle; for Parasitemia derived from flow cytometry: replicates 1 and 2. As to the method: Parasites were synchronised using a Percoll density gradient (Cytiva) combined with 5% sorbitol lysis. Ring-stage parasites at 0-4 hours post-invasion at 2% parasitemia and haematocrit were then added to 2 µM M-833, 60 nM W-991 or 0.02% DMSO and incubated at 37 °C with compound replenished every 24 h. After 48 h, samples of M-833 and W-991-treated parasites were washed x 3 in complete RPMI to remove the compound and put back into culture for the remainder of the experiment. For the following two cycles of growth, samples were taken every 24 h to monitor recovery. Upon completion of time points, fixed cells were stained with 2.5 x SYBR Green (Invitrogen) in PBS, washed once in PBS, and analysed on the Attune Flow Cytometer (ThermoFisher Scientific). Giemsa-stained blood smears were visualised and imaged using a Nikon Eclipse E600 microscope.
Background: A flow cytometer gives signals particle by particle.

“And” between values parts separate entries of the source, which are not always exact repeats. Equal entries are not always repeated.

As to `Cc1cc(Cl)c(S(=O)(=O)N2CCCC2)cc1OCC(=O)NC1CCCCC1` [M-833], the “Growth (Abs) Normalised to DMSO” value in assay [1] (Population C, M-833 0.0390625 uM) came to 99.9117; in assay [1] (Population C, M-833 0.078125 uM) it was 102.105; in assay [1] (Population C, M-833 0.15625 uM), 99.9558; in assay [1] (Population C, M-833 0.3125 uM), 98.7636; in assay [1] (Population C, M-833 0.625 uM) it was 92.6626; in assay [1] (Population C, M-833 1.25 uM), 74.9632. Further, the “Growth (Abs) Normalised to DMSO” value in assay [1] (Population C, M-833 2.5 uM) came out at 42.7878; in assay [1] (Population C, M-833 5 uM), 8.5443; in assay [1] (Population C, M-833 10 uM), 1.435; in assay [1] (Population D, M-833 0.0390625 uM), 100.282; in assay [1] (Population D, M-833 0.078125 uM), 101.574; in assay [1] (Population D, M-833 0.15625 uM), 100.622. The “Growth (Abs) Normalised to DMSO” value in assay [1] (Population D, M-833 0.3125 uM) is given as 100.758; in assay [1] (Population D, M-833 0.625 uM) it was 96.1318; in assay [1] (Population D, M-833 1.25 uM), 94.9752; in assay [1] (Population D, M-833 2.5 uM) it was 84.3814; in assay [1] (Population D, M-833 5 uM) it was 63.806; in assay [1] (Population D, M-833 10 uM) it was 31.8884. The “Growth (Abs) Normalised to DMSO” value in assay [1] (Population E, M-833 0.0390625 uM) was determined as 101.958; in assay [1] (Population E, M-833 0.078125 uM), 104.075; in assay [1] (Population E, M-833 0.15625 uM) it was 104.451; in assay [1] (Population E, M-833 0.3125 uM), 103.313; in assay [1] (Population E, M-833 0.625 uM) it was 104.846; in assay [1] (Population E, M-833 1.25 uM) it was 106.755. Besides, the “Growth (Abs) Normalised to DMSO” value in assay [1] (Population E, M-833 2.5 uM) worked out at 98.4077; in assay [1] (Population E, M-833 5 uM), 90.3966; in assay [1] (Population E, M-833 10 uM), 68.0744. Further, in assay [1] (cloned PopD and PopE lines, Fig 1B), the “increase in EC50 compared to 3D7 parasites” value is reported as 17 fold. Also, the “growth after washout of compound” value in the assay with ring-stage 3D7 parasites was “able to resume normal growth”. In the assay with ring-stage 3D7 parasites, the “ring morphology after 48 h” value was “presence of dysmorphic rings”. In the assay with ring-stage 3D7 parasites, the “schizont development at 36 h” value is “slight developmental delay of schizonts”. Besides, in the assay on ring-stage 3D7 parasites, the “impact on already-developed rings or trophozoites” value is “did not indicate any impact”. The “Parasitemia derived from flow cytometry” value with ring-stage 3D7 parasites (timepoint 0, no washout) is 2.571 and 1.962; in the assay on ring-stage 3D7 parasites (timepoint 0, washout) it was 1.962 and 2.571; in the assay on ring-stage 3D7 parasites (timepoint 48, no washout), 11.6017 and 7.415; in the assay with ring-stage 3D7 parasites (timepoint 48, washout) it was 7.415 and 11.6017; in the assay with ring-stage 3D7 parasites (timepoint 96, no washout) it was 6.175 and 3.315; in the assay with ring-stage 3D7 parasites (timepoint 96, washout), 2.881 and 5.202. Further, the “Parasitemia derived from flow cytometry” value was 3.175 and 1.778 with ring-stage 3D7 parasites (timepoint 144, no washout); 2.202 and 4.604 in the assay with ring-stage 3D7 parasites (timepoint 144, washout); 2.332 and 1.369 in the assay with ring-stage 3D7 parasites (timepoint 192, no washout); 3.268 and 8.096 in the assay on ring-stage 3D7 parasites (timepoint 192, washout); 2.528 and 1.343 in the assay with ring-stage 3D7 parasites (timepoint 240, no washout); 6.874 and 13.4537 in the assay with ring-stage 3D7 parasites (timepoint 240, washout).
`CC(C)(Nc1ccc(Cl)c(S(=O)(=O)N2CCOCC2)c1)C(=O)Nc1ccc(F)c(Cl)c1` [W-991]: in the assay on ring-stage 3D7 parasites, the “growth after washout of compound” value was “able to resume normal growth”. Besides, in the assay on ring-stage 3D7 parasites (60 h time point), the “reduction in parasitemia vs DMSO (Giemsa-stained smears)” value was found to be 1.3 fold. Moreover, the “ring morphology after 48 h” value with ring-stage 3D7 parasites is “presence of dysmorphic rings”. For the same molecule, the “schizont development at 36 h” value in the assay on ring-stage 3D7 parasites was “slight developmental delay of schizonts”. Besides, the “impact on already-developed rings or trophozoites” value in the assay on ring-stage 3D7 parasites is recorded as “did not indicate any impact”. Further, the “Parasitemia derived from flow cytometry” value was 2.571 and 1.962 with ring-stage 3D7 parasites (timepoint 0, no washout); 2.571 and 1.962 with ring-stage 3D7 parasites (timepoint 0, washout); 11.0007 and 8.084 in the assay with ring-stage 3D7 parasites (timepoint 48, no washout); 11.0007 and 8.084 with ring-stage 3D7 parasites (timepoint 48, washout); 5.782 and 3.338 in the assay with ring-stage 3D7 parasites (timepoint 96, no washout); 5.455 and 2.599 in the assay with ring-stage 3D7 parasites (timepoint 96, washout). The “Parasitemia derived from flow cytometry” value with ring-stage 3D7 parasites (timepoint 144, no washout) was 3.388 and 1.894; in the assay on ring-stage 3D7 parasites (timepoint 144, washout), 3.848 and 1.766; in the assay on ring-stage 3D7 parasites (timepoint 192, no washout), 2.379 and 1.388; in the assay with ring-stage 3D7 parasites (timepoint 192, washout) it was 4.263 and 2.036; with ring-stage 3D7 parasites (timepoint 240, no washout), 2.587 and 1.356; in the assay with ring-stage 3D7 parasites (timepoint 240, washout), 6.983 and 2.934.
`O=C(CNc1ccc(Cl)c(S(=O)(=O)N2CCOCC2)c1)Nc1ccc(F)c(Cl)c1` [compound 2, reference compound]: the “activity against M-833-resistant populations” value in assay [1] (Fig 4B) is “cross-resistant”.
